Results as given in patent publication US20260265235A1, “BICYCLOAMINE CARBOXAMIDE DERIVATIVE” (Sumitomo Pharma Co., Ltd., priority 2022, published 2026).

Molecular target: T1, Human orexin receptor type 2 (Homo sapiens, UniProt O43614)
T1 construct: expressed in transfected cells; host or cells: CHO cells (transient expression, with apoaequorin)
T1 sequence (O43614 1-444): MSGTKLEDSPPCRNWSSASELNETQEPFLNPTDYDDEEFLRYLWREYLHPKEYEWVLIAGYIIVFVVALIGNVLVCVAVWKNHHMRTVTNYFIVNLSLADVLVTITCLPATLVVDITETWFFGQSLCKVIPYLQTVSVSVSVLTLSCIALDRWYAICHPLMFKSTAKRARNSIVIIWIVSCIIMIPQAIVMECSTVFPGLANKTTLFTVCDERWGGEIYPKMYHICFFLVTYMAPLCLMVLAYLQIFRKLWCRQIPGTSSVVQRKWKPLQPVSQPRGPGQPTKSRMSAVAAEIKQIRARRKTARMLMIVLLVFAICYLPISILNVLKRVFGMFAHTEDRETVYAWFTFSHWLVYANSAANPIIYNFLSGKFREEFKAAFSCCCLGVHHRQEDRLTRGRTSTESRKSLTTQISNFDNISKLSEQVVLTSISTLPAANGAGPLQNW
Assay: Test Example 2: agonist activity for orexin receptor type 2 (aequorin luminescence, intracellular calcium mobilization in CHO cells)
Type: cell-based
Conditions: compound 10 μM; relative percentage of luminescence for the luminescence (100%) of Orexin A (100 μM); CHO cells transiently expressing human orexin receptor type 2 and apoaequorin
Experimental: Test Example 2: Measurement of Agonist Activity for Orexin Receptor Type 2
Human orexin receptor type 2 and apoaequorin were transiently expressed in CHO cells, and the agonist activity was evaluated based on intracellular calcium mobilization with ligand stimulation. The CHO cells transiently-expressed human orexin receptor type 2 and apoaequorin were seeded on a 384-well plate by 2,000 cells/well, and then incubated for 16-22 hours. After the plate was returned to room temperature, Coelenterazine hcp (final concentration: 1 μM) was added to the plate, and the plate was allowed to stand at room temperature for 2 hours. And then, Orexin A (PEPTIDE INSTITUTE, INC., Lot. 711101) or each test compound was added to the plate, and the luminescence of the cells was measured with FDSS7000 (Hamamatsu Photonics K.K.), wherein Orexin A and each test compound were dissolved in DMSO (final concentration: 0.1%), and diluted with a buffer (Hanks, 20 mM HEPES, 0.1% BSA). The agonist activity of each test compound for orexin receptor type 2 was calculated as relative percentage of luminescence for the luminescence (100%) of Orexin A (100 μM).
Each agonist activity of the compounds obtained in Examples (10 μM) for orexin receptor type 2 is shown in the table below as relative percentage of luminescence for the luminescence (100%) of Orexin A (100 μM).

Agonist Activity (%)	Structure (SMILES)
343%	CC(C)N1CC[C@H](N(C)[C@H]2CCCC(F)(F)[C@@H]2NC(=O)N2C[C@H]3CC(c4ccccc4)C[C@H]3C2)C1 (stereo partly drawn) [Example 33, (3aR,5R,6aS)—N-[(1R,6S)-2,2-difluoro-6-{methyl[(3S)-1-(propan-2-yl)pyrrolidin-3-yl]amino}cyclohexyl]-5-phenylhexahydropenta[c]pyrrole-2(1H)-carboxamide]
341%	CC(C)N1CC[C@H](N(C)[C@H]2CCCC(F)(F)[C@@H]2NC(=O)N2C[C@@H]3CN(c4ccccc4)C[C@@H]3C2)C1 [Example 34, (3aR,6aS)—N-[(1R,6S)-2,2-difluoro-6-{methyl[(3S)-1-(propan-2-yl)pyrrolidin-3-yl]amino}cyclohexyl]-5-phenylhexahydropyrrolo[3,4-c]pyrrole-2(1H)-carboxamide]
